This data set is described as follows: Single-dose escalating clinical testing, safety/tolerability of the active ingredient. Format: in vivo, human. The text has this: In order to confirm the safety/tolerability of the active ingredient in the human body, side effects were checked in healthy adult subjects.
The clinical testing was designed for 32 healthy adult subjects in a randomized, double-blinded, placebo-controlled, single-dose escalating manner, as shown in Table 1 below. The capsule tablets used in this clinical testing were produced by using Vcaps® enteric-coated capsules containing only the active ingredient in hydrochloride form without additional excipients, and filling capsules by volume. The ingredients of the enteric-coated tablet (1 tablet) used in the clinical testing are shown in Table 2 below, and were named ‘Comparative Example 1’. In addition, for the enteric-coated tablet administrated group, 5 tablets were administered at a time.

SMILES strings stand for the structures.

As for `O[C@H]1CCCN[C@@H]1CCCn1cnc2c(Cl)c(Cl)ccc21` [API, (2R,3S)-2-(3-(4,5-dichloro-1H-benzo[d]imidazol-1-yl)propyl) piperidin-3-ol 1HCl], for the setting “single administration, FIG. 1”, the “time of occurrence of nausea and vomiting side effects versus exposure in the body” value is reported as “the majority of cases occur before the blood concentration in the body increases”. Also, the “most frequently occurring adverse reactions” value (single oral administration 100-600 mg, enteric coated capsule or tablet, healthy adult subjects) was “gastrointestinal adverse reactions including nausea, vomiting, diarrhea, and abdominal pain”.

Values taken from patent US20260130900A1, “Controlled Release Pharmaceutical Composition” (Daewoong Pharmaceutical Co., Ltd., priority 2022, published 2026).
